Series [1] in a line: MTT cell viability assay, THP-1 cells. Format: cell-based. Conditions: human, unstimulated THP-1 cells, read-out: THP-1 Cytotoxicity CC50. The procedure: In order to assess the cytotoxicity of the compounds, an MTT cell viability assay was performed in either unstimulated THP-1 or HepG2 cells as follows. 5×10^4 THP-1 or 5×10^3 HepG2 cells were seeded into each well of a 96-well plate in 90 μL of media. Compounds were added to cells as described for the IL-10 assay and returned to the incubator for an additional 72 hours. Next, 25 μL of MTT solution (5 mg/mL in sterile PBS) was added to each well. Plates were incubated for 3 hours at 37° C., 5% CO2. Next, for THP-1 cells, 100 μl of MTT solubilization solution (40% Dimethylformamide, 2% glacial acetic acid, 16% sodium dodecyl sulfate) was then added to each well and plates were incubated at room temperature in the dark overnight. For HepG2 cells, media was aspirated, 50 μL of DMSO was added and plates were mixed briefly with an orbital plate shaker. Absorbance at 570 nm was measured using a Perkin-Elmer EnVision plate reader.
Absorbance values were converted to percentage of vehicle-treated controls. Data was then analyzed using a non-linear regression (variable slope (four-parameter)) equation in GraphPad Prism 7.0.
Table 2 provides THP-1 cytotoxicity assay CC50 values for example compounds. A indicates CC50>10 μM; B indicates CC50 between 1 and 10 μM (inclusive); C indicates CC50<1 μM. NT, not tested.

A further series relates to IL-1β. In words: IL-1β inhibition assay (ELISA/HTRF of culture supernatants). Format: cell-based. The following applies: Homo sapiens, PMA-differentiated THP-1 cells, tested 10 μM to 0.003 μM. Here is the method:
Human monocyte-like THP-1 cells were grown in RPMI media supplemented with 10% FBS (growth media) at 37° C., 5% CO2. Cell cultures were passaged every three days and maintained at a density of 5×10^5 to 1×10^6 cells per mL.
Compounds were prepared as 10 mM stock solutions in 100% DMSO. […] Each 200× dilution was then diluted 20-fold in growth media (step down dilution) to yield a 10× final assay concentration range. All compounds were tested over a final assay concentration range of 10 μM to 0.003 μM.
The level of IL-10 in supernatants from PMA-differentiated THP-1 cells was determined by ELISA using either the R&D Systems Human IL-1 beta/IL-1F2 Quantikine ELISA or the cisbio HTRF human IL 1 beta kit. Manufacturer's protocols were followed without deviation.
Background values were subtracted and resulting values were converted to percentage of vehicle-treated controls. Data was analyzed via GraphPad Prism 7.0 using a non-linear regression (variable slope (four-parameter)) equation.
Table 2 provides IL-10 ELISA EC50 values for example compounds. A indicates EC50>10 μM; B indicates EC50 between 1 and 10 μM (inclusive); C indicates EC50<1 μM.
(In an ELISA, binding on a coated surface is turned into a signal by an enzyme label.)

Bounds are passed on as bounds.

For orientation: CC50 means the concentration giving 50% cytotoxicity. In general, EC50 refers to the midpoint of the concentration-response curve. A low value points to greater potency. For `C[N+]12CC(=O)O[B-]1(c1cccc(S(=O)(=O)NC(=O)Nc3c4c(cc5c3CCC5)CCC4)c1)OC(=O)C2` (centres unmarked) [Example 26, N-((1,2,3,5,6,7-hexahydro-s-indacen-4-yl)carbamoyl)-3-(4-methyl-2,6-dioxotetrahydro-2H-414,814-[1,3,2]oxazaborolo[2,3-b][1,3,2]oxazaborol-8-yl)benzenesulfonamide], the CC50 at 72 h in series [1] is over 10 µM. Besides, the EC50 in the series on IL-1β was under 1000 nM.
As to `C[N+]12CC(=O)O[B-]1(c1ccc(S(=O)(=O)NC(=O)Nc3c4c(cc5c3CCC5)CCC4)cc1)OC(=O)C2` (centres unmarked) [Example 27, N-((1,2,3,5,6,7-hexahydro-s-indacen-4-yl)carbamoyl)-4-(4-methyl-2,6-dioxotetrahydro-2H-414,814-[1,3,2]oxazaborolo[2,3-b][1,3,2]oxazaborol-8-yl)benzenesulfonamide], the 50% cytotoxic concentration (CC50) at 72 h in series [1] is over 10 µM. In addition, the EC50 with IL-1β is under 1000 nM.
On to `C[N+]12CCO[B-]1(c1cccc(S(=O)(=O)NC(=O)Nc3c4c(cc5c3CCC5)CCC4)c1)OCC2` (centres unmarked) [Example 28, N-((1,2,3,5,6,7-hexahydro-s-indacen-4-yl)carbamoyl)-3-(4-methyltetrahydro-2H-414,814-[1,3,2]oxazaborolo[2,3-b][1,3,2]oxazaborol-8-yl)benzenesulfonamide], for which the CC50 at 72 h in series [1] was over 10 µM. In addition, the EC50 in the series with IL-1β was under 1000 nM.
Regarding `O=C(Nc1c2c(cc3c1CCC3)CCC2)NS(=O)(=O)c1ccc2c(c1)COB2O` [Example 29, N-((1,2,3,5,6,7-hexahydro-s-indacen-4-yl)carbamoyl)-1-hydroxy-1,3-dihydrobenzo[c][1,2]oxaborole-5-sulfonamide], the CC50 at 72 h in series [1] was over 10 µM. Besides, the EC50 in the series with IL-1β is under 1000 nM.
As to `CC(C)c1cc(B2OC(C)(C)C(C)(C)O2)cc(C(C)C)c1NC(=O)NS(=O)(=O)c1ccn(C(C)C)n1` [Example 30, N-((2,6-diisopropyl-4-(4,4,5,5-tetramethyl-1,3,2-dioxaborolan-2-yl)phenyl)carbamoyl)-1-isopropyl-1H-pyrazole-3-sulfonamide], in series [1], the CC50 at 72 h is over 10 µM. Also, the EC50 in the series with IL-1β was in the range of 1000 to 10000 nM.
Regarding `CC(C)c1cc(B(O)O)cc(C(C)C)c1NC(=O)NS(=O)(=O)c1ccn(C(C)C)n1` [Example 31, (3,5-diisopropyl-4-(3-((1-isopropyl-1H-pyrazol-3-yl)sulfonyl)ureido)phenyl)boronic acid], the CC50 at 72 h in series [1] is over 10 µM. In the series with IL-1β, this compound displayed an EC50 of over 10000 nM.
As for `COc1ccc(S(=O)(=O)NC(=O)Nc2c3c(cc4c2CCC4)CCC3)cc1CCB1OC(C)(C)C(C)(C)O1` [Example 32, N-((1,2,3,5,6,7-hexahydro-s-indacen-4-yl)carbamoyl)-4-methoxy-3-(2-(4,4,5,5-tetramethyl-1,3,2-dioxaborolan-2-yl)ethyl)benzenesulfonamide], the 50% cytotoxic concentration (CC50) at 72 h in series [1] was over 10 µM. For the same compound, the EC50 in the series on IL-1β was 1000 to 10000 nM.
Take `O=C(Nc1c2c(cc3c1CCC3)CCC2)NS(=O)(=O)c1ccc2c(c1)CCB(O)O2` [Example 33, N-((1,2,3,5,6,7-hexahydro-s-indacen-4-yl)carbamoyl)-2-hydroxy-3,4-dihydro-2H-benzo[e][1,2]oxaborinine-6-sulfonamide]: the CC50 at 72 h in series [1] was over 10 µM. Also, the concentration for a half-maximal effect (EC50) in the series on IL-1β was in the range of 1000 to 10000 nM.
As to `O=C(Nc1c2c(cc3c1CCC3)CCC2)NS(=O)(=O)c1cc(F)cc2c1B(O)OC2` [Example 34, 5-fluoro-N-((1,2,3,5,6,7-hexahydro-s-indacen-4-yl)carbamoyl)-1-hydroxy-1,3-dihydrobenzo[c][1,2]oxaborole-7-sulfonamide], the CC50 at 72 h in series [1] was over 10 µM. Also, the EC50 in the series on IL-1β fell in the range of 1000 to 10000 nM.
In the case of `COC(=O)c1ccc(S(=O)(=O)NC(=O)Nc2c3c(cc4c2CCC4)CCC3)cc1B(O)O` [Example 35, (5-(N-((1,2,3,5,6,7-hexahydro-s-indacen-4-yl)carbamoyl)sulfamoyl)-2-(methoxycarbonyl)phenyl)boronic acid], the CC50 at 72 h in series [1] is over 10 µM. For the same compound, in the series with IL-1β, the EC50 is over 10000 nM.
Take `O=C(Nc1c2c(cc3c1CCC3)CCC2)NS(=O)(=O)c1ccc2c(c1)B(O)OC2=O` [Example 36, N-((1,2,3,5,6,7-hexahydro-s-indacen-4-yl)carbamoyl)-1-hydroxy-3-oxo-1,3-dihydrobenzo[c][1,2]oxaborole-6-sulfonamide]: the CC50 at 72 h in series [1] was over 10 µM. In the series with IL-1β, the EC50 was over 10000 nM.
For `O=C(Nc1c2c(cc3c1CCC3)CCC2)NS(=O)(=O)c1ccc(O)c(CCCB(O)O)c1` [Example 37, (3-(5-(N-((1,2,3,5,6,7-hexahydro-s-indacen-4-yl)carbamoyl)sulfamoyl)-2-hydroxyphenyl)propyl)boronic acid], in series [1], the CC50 at 72 h was over 10 µM. Moreover, the EC50 with IL-1β lay in the range of 1000 to 10000 nM.
`O=C(Nc1c2c(cc3c1CCC3)CCC2)NS(=O)(=O)c1ccc(O)c(CB(O)O)c1` [Example 38, (5-(N-((1,2,3,5,6,7-hexahydro-s-indacen-4-yl)carbamoyl)sulfamoyl)-2-hydroxybenzyl)boronic acid]: the CC50 at 72 h in series [1] was over 10 µM. Besides, the EC50 with IL-1β fell in the range of 1000 to 10000 nM.
On to `COc1ccc(S(=O)(=O)NC(=O)Nc2c3c(cc4c2CCC4)CCC3)cc1CB(O)O` [Example 39, (5-(N-((1,2,3,5,6,7-hexahydro-s-indacen-4-yl)carbamoyl)sulfamoyl)-2-methoxybenzyl)boronic acid], for which the CC50 at 72 h in series [1] was over 10 µM. In the series with IL-1β, this compound had an EC50 of 1000 to 10000 nM.
Take `O=C(Nc1c2c(cc3c1CCC3)CCC2)NS(=O)(=O)c1ccc(CCCB(O)O)c(O)c1` [Example 40, (3-(4-(N-((1,2,3,5,6,7-hexahydro-s-indacen-4-yl)carbamoyl)sulfamoyl)-2-hydroxyphenyl)propyl)boronic acid]: the CC50 at 72 h in series [1] is over 10 µM. The same compound gave an EC50 in the series on IL-1β of 1000 to 10000 nM.
Regarding `O=C(Nc1c2c(cc3c1CCC3)CCC2)NS(=O)(=O)c1ccc2c(c1)OB(O)CC2` [Example 41, N-((1,2,3,5,6,7-hexahydro-s-indacen-4-yl)carbamoyl)-2-hydroxy-3,4-dihydro-2H-benzo[e][1,2]oxaborinine-7-sulfonamide], the CC50 at 72 h in series [1] was over 10 µM. The EC50 with IL-1β is 1000 to 10000 nM.
For the compound `COc1cc(S(=O)(=O)NC(=O)Nc2c3c(cc4c2CCC4)CCC3)ccc1CB1O[C@@H]2C[C@@H]3C[C@@H](C3(C)C)[C@]2(C)O1` [Example 42, N-((1,2,3,5,6,7-hexahydro-s-indacen-4-yl)carbamoyl)-3-methoxy-4-(((3aS,4S,6S,7aR)-3a,5,5-trimethylhexahydro-4,6-methanobenzo[d][1,3,2]dioxaborol-2-yl)methyl)benzenesulfonamide], the CC50 at 72 h in series [1] is over 10 µM. This compound also had an EC50 with IL-1β of under 1000 nM.
On to `COc1ccc(S(=O)(=O)NC(=O)Nc2c3c(cc4c2CCC4)CCC3)cc1B(O)O` [Example 43, (5-(N-((1,2,3,5,6,7-hexahydro-s-indacen-4-yl)carbamoyl)sulfamoyl)-2-methoxyphenyl)boronic acid], for which the CC50 at 72 h in series [1] was over 10 µM. The EC50 in the series on IL-1β lay in the range of 1000 to 10000 nM.
With `O=C(Nc1c2c(cc3c1CCC3)CCC2)NS(=O)(=O)c1ccc(CB(O)O)c(O)c1` [Example 44, (4-(N-((1,2,3,5,6,7-hexahydro-s-indacen-4-yl)carbamoyl)sulfamoyl)-2-hydroxybenzyl)boronic acid], the CC50 at 72 h in series [1] is over 10 µM. In the series with IL-1β, this compound yielded an EC50 of 1000 to 10000 nM.
Regarding `COc1ccc(S(=O)(=O)NC(=O)Nc2c3c(cc4c2CCC4)CCC3)cc1CCCB1OC(C)(C)C(C)(C)O1` [Example 45, N-((1,2,3,5,6,7-hexahydro-s-indacen-4-yl)carbamoyl)-4-methoxy-3-(3-(4,4,5,5-tetramethyl-1,3,2-dioxaborolan-2-yl)propyl)benzenesulfonamide], in series [1], the CC50 at 72 h is over 10 µM. The same compound registered an EC50 in the series with IL-1β of 1000 to 10000 nM.
Consider `CC1(C)OB(CCCc2cccc(S(=O)(=O)NC(=O)Nc3c4c(cc5c3CCC5)CCC4)c2)OC1(C)C` [Example 46, N-((1,2,3,5,6,7-hexahydro-s-indacen-4-yl)carbamoyl)-3-(3-(4,4,5,5-tetramethyl-1,3,2-dioxaborolan-2-yl)propyl)benzenesulfonamide], for which the CC50 at 72 h in series [1] was over 10 µM. In the series on IL-1β, the EC50 was in the range of 1000 to 10000 nM.
In the case of `CC1(C)OB(O)c2cc(S(=O)(=O)NC(=O)Nc3c4c(cc5c3CCC5)CCC4)ccc21` [Example 47, N-((1,2,3,5,6,7-hexahydro-s-indacen-4-yl)carbamoyl)-1-hydroxy-3,3-dimethyl-1,3-dihydrobenzo[c][1,2]oxaborole-6-sulfonamide], the CC50 at 72 h in series [1] was over 10 µM. Also, the EC50 with IL-1β fell in the range of 1000 to 10000 nM.

(Values after US20240018166A1, “SULFONYL UREA NLRP3 INFLAMMASOME INHIBITORS” (Venatorx Pharmaceuticals, Inc., priority 2020, published 2024).)
